Assays:
CYP3A4 = biological target: T1, CYP3A4 (Homo sapiens, UniProt P08684); assay: CYP3A4 reversible inhibition in human liver microsomes; assay type: in vitro ADME
T1 construct: human liver microsomes (purchased from BD Gentest as a pooled batch from 150 donors); tissue BD Gentest Cat#452117; host or cells: pooled human liver microsomes (150 donors)
Protocol: Incubations were performed with 0.1 mg/mL human liver microsomes (purchased from BD Gentest as a pooled batch from 150 donors) in a final incubation volume of 0.25 mL. The incubation medium contained 0.05 M phosphate buffer (pH 7.4) containing an NADPH regenerating system (including 1.3 mM NADP, 3.3 mM glucose 6-phosphate,3.3 mM MgCl2, and 1.0 U/mL glucose 6-phosphate dehydrogenase). Probe CYP3A4 substrates (midazolam at 3 μM and testosterone at 50 μM), were incubated for 10 and 30 min, respectively, with increasing concentrations of GM, MGM or CGM (concentration range: 1 - 30 μM). The reaction was stopped by adding acetonitrile to precipitate the proteins. The incubation mixtures were then centrifuged for 5 min at 10,000 × g, and an aliquot of the supernatant was analyzed using high-performance liquid chromatography coupled to mass spectrometry for the assessment of 1’-hydroxymidazolam and 6β-hydroxytestosterone metabolite formation.

[1] = assay type: in vitro ADME, human
Protocol: The metabolic stability of test compounds was determined as described.[57]^,[58] Incubation and experimental conditions with human hepatic microsomal fractions (purchased from BD Gentest as a pooled batch from 6 donors) were as follows: microsomal proteins, 1 mg/mL; bovine serum albumin, 1 mg/mL; substrate, 5 μM; incubation duration, 20 min; cytochrome P-450 monooxygenases (CYPs) and flavin containing monooxygenases (FMOs) cofactor, 1 mM NADPH. Enzyme activity was stopped with 1 volume of acetonitrile. […] For each test compound and for each microsomal preparation, three incubations were prepared: absolute reference in buffer (without enzyme material, i.e., microsomes); incubation without NADPH cofactor (with microsomal fractions); and incubation with NADPH (with microsomal fractions). For most compounds, biotransformation, as observed in hepatic microsomal fractions in the presence of the NADPH cofactor, consists of oxidative reactions catalyzed by either CYPs or FMOs. In these conditions, the percentage of total metabolism, which corresponds to oxidative metabolism, was determined as follows: [% total metabolism] ≈ [% oxidative metabolism] = [unchanged compound (UC) peak area − NADPH UC peak area + NADPH] × 100%, where NADPH corresponds to the enzyme cofactor for oxidation reactions catalyzed by either CYP or FMO.

physchem = settings: pH 7.4

T1 sequence (P08684 whole entry): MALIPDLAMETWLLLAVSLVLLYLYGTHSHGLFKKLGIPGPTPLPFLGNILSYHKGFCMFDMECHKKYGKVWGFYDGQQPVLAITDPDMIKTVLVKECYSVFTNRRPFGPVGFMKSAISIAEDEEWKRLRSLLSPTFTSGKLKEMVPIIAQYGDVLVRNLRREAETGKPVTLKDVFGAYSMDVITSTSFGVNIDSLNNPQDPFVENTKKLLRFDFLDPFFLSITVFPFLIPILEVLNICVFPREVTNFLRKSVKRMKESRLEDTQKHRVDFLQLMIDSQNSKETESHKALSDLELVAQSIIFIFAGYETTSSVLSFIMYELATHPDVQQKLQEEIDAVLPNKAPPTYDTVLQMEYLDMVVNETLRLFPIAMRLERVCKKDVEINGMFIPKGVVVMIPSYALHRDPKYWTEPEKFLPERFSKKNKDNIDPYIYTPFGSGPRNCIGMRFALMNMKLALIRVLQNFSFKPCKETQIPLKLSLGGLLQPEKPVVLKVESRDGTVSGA

CON=C1CC(C)OC(OC2C(C)CC(C)(OC(=O)NC(C)(C)CNS(=O)(=O)c3ccccc3)C(=O)C(C)C(OC(=O)CC(C)C)C(C)C(C(C)COC3OC(C)C(O)C(OC)C3OC)OC(=O)C(C)C(OC3CC(C)N(C)CC(C)O3)C2C)C1O (stereo not shown) [SEQ-9]
Cytochrome 3A4 inhibition (in words) (CYP3A4): abolished | IC50 at 10 min (CYP3A4; human, microsomes, pH 7.4, midazolam, read-out: CYP3A4 inhibition, IC50 with midazolam as substrate): > 30 µM | IC50 at 30 min (CYP3A4; human, microsomes, pH 7.4, testosterone, read-out: CYP3A4 inhibition, IC50 with testosterone as substrate (T)): > 50 µM | Metabolic stability in human liver microsomes (% metabolized compound after 20 min) ([1]; 20 min incubation): 10% | Metabolic stability in human liver microsomes (% metabolized compound after 20 min), (K) ([1]; in presence of ketoconazole CYP3A inhibitor (K)): 0(K) % | Metabolic stability in human liver microsomes (% metabolized compound after 20 min), (Q) ([1]; in presence of quinidine CYP2D6 inhibitor (Q)): /10(Q) % | logD (physchem): 3.4

— article PMC9994261 (Cell, 2023)
